Results on five compounds are retold here after US20220364135A1, “MODIFIED PROPIONIBACTERIUM AND METHODS OF USE” (priority 2019, published 2022).

The subject of one assay is cbiMCbl riboswitch. In words: FbFP reporter assay, WT cbiMCbl riboswitch in FbFP-ΔcobA strain. The settings on record: for FbFP expression with VB12 analogues: various concentrations of analogues. Type of assay: cell-based, P. UF1. From the text: (§1) To generate the cbiMCbl riboswitch-FbFP translational fusion constructs, the 5′ UTR (FIG. 6C) containing the promoter of cobA operon, wild-type cbiMCbl riboswitch and ribosome-binding site was PCR amplified from P. UF1 genome (NCBI Genome database, CP018002) with primers S-cobA-1 and S-cobA 22. The codon-optimized FbFP gene (32) was synthesized (GenScript, Piscataway, N.J.) and PCR amplified using primers S-cobA 33 and S-cobA 4. Overlapping PCR was used to ligate the 5′ UTR and FbFP gene using Primers cobA-1 and S-cobA-4, which was subsequently cloned into plasmid pYMZ between BamHI and XbaI sites. Mutations of the cbiMCbl riboswitch were generated by site-directed mutagenesis or overlapping PCR (Table S1). cbiM, cbiN, cbiO, cobA, and tetR reporters were constructed using similar strategies. All plasmids were verified via Sanger sequencing (Genewiz, South Plainfield, N.J.) and introduced into P. UF1 or ΔcobA P. UF1 by electroporation.
FbFP reporter assays: To perform FbFP fluorescence intensity measurement, bacteria were cultivated for three days in triplicate, washed, and resuspended with PBS. The excitation and emission wavelengths of FbFP were set at 452 nm and 495 nm on a microplate reader (BioTek, Winooski, Vt.), respectively (48). FbFP intensity at 495 nm was normalized by corresponding OD600 values for each sample. P. UF1 strain with an empty vector was used as the baseline for calculation of fluorescence intensity.
Background: Reporter assays use an easily measured gene product as a stand-in for the process of interest.

Assay [1] relates to cobA operon. The experiment in a line: Western blot of cobA operon gene expression under WT cbiMCbl riboswitch in ΔcobA P. UF1 reporter strains. The assay is classed as cell-based. The settings on record: for cbiM expression with VB12 analogues: various concentrations of analogues.
Text: as §1
Western blot: Bacteria were cultivated for three days, and washed three times, followed by lysozyme digestion (10 mg/ml) for 2 hours at 37° C. Cell lysates were separated by 12% SDS-PAGE, transferred to PVDF membranes (Sigma Aldrich, St. Louis, Mo.), and blocked with Odyssey blocking buffer (Li-Cor Biosciences, Lincoln, Nebr.). Subsequently, membranes were incubated with anti-HIS-tag antibody (Thermo Fisher Scientific, Waltham, Mass.), anti-TetR antibody (Takara Bio, Mountain view, CA), anti-CobA serum antibodies, or anti-LspA serum antibodies (Stock in our lab) for 2 h at room temperature in the blocking buffer with 0.02% Tween 20. After washing with TBST (20 mM Tris, 150 mM NaCl and 0.1% Tween 20, pH 7.4), membranes were incubated with IRDye 680RD goat anti-mouse secondary antibody (Li-Cor Biosciences, Lincoln, Nebr.) for 1 hour at room temperature in the blocking buffer with 0.02% Tween 20. After washing with TBS, the proteins were detected using an Odyssey infrared imaging system (Li-Cor Biosciences, Lincoln, Nebr.). LspA was used as an internal control.
(In general: In western blotting, separated proteins are transferred to a membrane and probed.)

Assay [2] has as its system SL1-deleted riboswitch (ΔSL1). In words: FbFP reporter assay, SL1-deleted riboswitch in FbFP-ΔcobA strain. Type of assay: cell-based, P. UF1.
Text: as §1
FbFP reporter assays: To perform FbFP fluorescence intensity measurement, bacteria were cultivated for three days in triplicate, washed, and resuspended with PBS. The excitation and emission wavelengths of FbFP were set at 452 nm and 495 nm on a microplate reader (BioTek, Winooski, Vt.), respectively (48). […] P. UF1 strain with an empty vector was used as the baseline for calculation of fluorescence intensity.

In assay [3] the test system is SL1-deleted riboswitch (ΔSL1). In words: Western blot of cbiM expression, SL1-deleted riboswitch in CbiM-ΔcobA strain. The settings on record: VB12 0-5000 ng/ml. Type of assay: cell-based, P. UF1.
Text: as §1
Western blot: Bacteria were cultivated for three days, and washed three times, followed by lysozyme digestion (10 mg/ml) for 2 hours at 37° C. […] After washing with TBS, the proteins were detected using an Odyssey infrared imaging system (Li-Cor Biosciences, Lincoln, Nebr.). […]

The subject of a further assay is 5′ UTR of cobA operon. The experiment in a line: FbFP and cbiM reporter expression in FbFP-WT and CbiM-WT strains. The assay is classed as cell-based, P. UF1. The settings on record: FbFP-WT and CbiM-WT cultures.
Text: as §1
[…] The excitation and emission wavelengths of FbFP were set at 452 nm and 495 nm on a microplate reader (BioTek, Winooski, Vt.), respectively (48). […] P. UF1 strain with an empty vector was used as the baseline for calculation of fluorescence intensity.
[…] After washing with TBS, the proteins were detected using an Odyssey infrared imaging system (Li-Cor Biosciences, Lincoln, Nebr.). […]

In assay [4] the test system is cobA operon. The experiment in a line: qRT-PCR of cobA operon transcription. Type of assay: cell-based. The settings on record: P. UF1 incubated with various concentrations of VB12. From the text: Quantitative RT-PCR: Total RNA was extracted from various bacterial cultures using Trizol reagent (Thermo Fisher Scientific, Waltham, Mass.), and the RNA mixtures were further purified using the Aurum Total RNA Mini Kit (Bio-Rad, Hercules, Calif.). The cDNA was synthesized from total RNA using iScript Advanced cDNA Synthesis Kit (Bio-Rad, Hercules, Calif.). Quantitative real-time was accomplished with SsoAdvanced Universal SYBR Green Supermix (Bio-Rad, Hercules, Calif.) on a CFX96 real-time PCR system (Bio-Rad, Hercules, Calif.) using primers listed in Table 2 above. Results were normalized to those obtained from groL2 gene.

In the case of `C/C1=C2/[N-][C@H]([C@H](CC(N)=O)[C@@]2(C)CCC(=O)NC[C@@H](C)OP(=O)([O-])O[C@H]2[C@@H](O)[C@@H](n3cnc4cc(C)c(C)cc43)O[C@@H]2CO)[C@]2(C)N=C(/C(C)=C3N=C(/C=C4N=C1[C@@H](CCC(N)=O)C\4(C)C)[C@@H](CCC(N)=O)[C@]\3(C)CC(N)=O)[C@@H](CCC(N)=O)[C@]2(C)CC(N)=O.[CH2-][C@H]1O[C@@H](n2cnc3c(N)ncnc32)[C@H](O)[C@@H]1O.[Co]` [adenosylcobalamin], the “FbFP expression with VB12 analogues” value in the assay with cbiMCbl riboswitch (FbFP-ΔcobA strain) is given as “similarly downregulated”. The “cbiM expression with VB12 analogues” value with cobA operon [1] (CbiM-ΔcobA strain) was “similarly downregulated”.
Take `C/C1=C2/[N-][C@H]([C@H](CC(N)=O)[C@@]2(C)CCC(=O)NC[C@@H](C)OP(=O)([O-])O[C@H]2[C@@H](O)[C@@H](n3cnc4cc(C)c(C)cc43)O[C@@H]2CO)[C@]2(C)N=C(/C(C)=C3N=C(/C=C4N=C1[C@@H](CCC(N)=O)C\4(C)C)[C@@H](CCC(N)=O)[C@]\3(C)CC(N)=O)[C@@H](CCC(N)=O)[C@]2(C)CC(N)=O.[Co+3].[OH-]` [hydroxocobalamin]: in the assay with cbiMCbl riboswitch (FbFP-ΔcobA strain), the “FbFP expression with VB12 analogues” value is reported as “similarly downregulated”. Also, in the assay with cobA operon [1] (CbiM-ΔcobA strain), the “cbiM expression with VB12 analogues” value is “similarly downregulated”.
As for `C/C1=C2/[N-][C@H]([C@H](CC(N)=O)[C@@]2(C)CCC(=O)NC[C@H](C)OP(=O)([O-])O[C@H]2[C@@H](O)[C@@H](n3cnc4cc(C)c(C)cc43)O[C@@H]2CO)[C@]2(C)N=C(/C(C)=C3N=C(/C=C4N=C1[C@@H](CCC(N)=O)C\4(C)C)[C@@H](CCC(N)=O)[C@]\3(C)CC(N)=O)[C@@H](CCC(N)=O)[C@]2(C)CC(N)=O.[CH3-].[Co+3]` [methylcobalamin], the “FbFP expression with VB12 analogues” value with cbiMCbl riboswitch (FbFP-ΔcobA strain) is “similarly downregulated”. The “cbiM expression with VB12 analogues” value with cobA operon [1] (CbiM-ΔcobA strain) was “similarly downregulated”.
Take Vitamin B12 [VB12]: in assay [2] (FbFP-ΔcobA strain, ΔSL1 riboswitch, VB12 0-5000 ng/ml), the “IC50 of VB12 on FbFP expression, SL1-deleted riboswitch” value is 12.962 µg/mL. Further, the “IC50 with ΔSL1 relative to WT riboswitch” value in assay [2] (ΔSL1 vs WT riboswitch) turned out to be 256 times. In addition, the “cbiM expression, ΔSL1 compared to WT riboswitch” value in assay [3] is reported as “no repression”. The “VB12 concentration completely inhibiting expression of downstream genes by cbiMCbl riboswitch” value with cbiMCbl riboswitch stood at 750 µM. Further, the “VB12 concentration at which expression of FbFP was completely abated” value with cbiMCbl riboswitch (FbFP-ΔcobA strain, WT riboswitch) worked out at 500 ng/mL. The “half maximal inhibitory concentration (IC50) of VB12 on FbFP expression” value with cbiMCbl riboswitch (FbFP-ΔcobA strain, WT riboswitch, VB12 0-2500 ng/ml) was determined as 0.0752 µg/mL. For the same compound, in the assay with cbiMCbl riboswitch (WT riboswitch, 250 ng/ml VB12), the “repression of FbFP expression” value was around 10 fold. Moreover, the “expression of FbFP and cbiM” value with 5′ UTR of cobA operon is recorded as “significantly decreased”. The “mRNA levels of cbiM, cbiN, cbiO and cbiQ” value with cobA operon [4] is given as “significantly repressed”. Also, in the assay on cobA operon [1] (CbiM-ΔcobA strain, VB12 0-2500 ng/ml), the “cbiM expression (Western blot, HIS-tag antibody)” value is listed as “dose-dependent inhibition”. In addition, in the assay on cobA operon [1] (CbiN-ΔcobA and CbiO-ΔcobA cultures, VB12 0-25000 ng/ml), the “expression of cbiN and cbiO (Western blot)” value is recorded as “dampened”. In the assay with cobA operon [1] (CobA-ΔcobA strain, VB12 0-25000 ng/ml), the “cobA expression (Western blot)” value is “dose-dependent inhibition but to a lesser extent”.
In the case of cyanocobalamin, the “FbFP expression with VB12 analogues” value with cbiMCbl riboswitch (FbFP-ΔcobA strain) is listed as “similarly downregulated”. Also, the “cbiM expression with VB12 analogues” value in the assay on cobA operon [1] (CbiM-ΔcobA strain) is “similarly downregulated”.
